Consider 24 compounds from paper PMC10269678, “Identification of Fungus-Derived Natural Products as New Antigiardial Scaffolds” (Microbiology Spectrum, 2023).

Like-named read-outs stand apart in the source and are kept apart here.

Assay [1] has as its system G. lamblia strain CBG99. Kind of assay: G. lamblia CBG99 luciferase reporter trophozoite growth assay. The assay is classed as cell-based, Giardia lamblia. Conditions: for inhibition at 10 µM: read-out: % inhibition at 10 μM; for times more potent than metronidazole: relative to metronidazole EC50 of 5 μM; for % inhibition at 10 μM: pNP tested at 10 μM, G. lamblia growth, primary screen. From the text: For in vitro Giardia assays, we used a click beetle green (CBG99) luciferase-based reporter system that was developed for quantitative bioluminescence readouts of growth in trophozoites ([13][–][15]). The CBG99 reporter gene is under the control of the glutamate dehydrogenase promoter, which is highly expressed in the G. lamblia trophozoite stage, making it useful for monitoring growth even in mouse infection models ([15]). The compound library was obtained from the Natural Products Discovery Group (NPDG) at the University of Oklahoma ([16]). A combination of 755 purified natural products (pNPs) and 1,056 fungal extracts were screened against G. lamblia strain CBG99. Hits were defined as samples that caused ≥50% growth inhibition activity at 10 μM (pNPs) or 5 μg/mL (extracts). […] Only 2 were considered false positives (EC50 > 10 μM) (Table 2).
On the technique in general: In a reporter assay the amount or activity of a reporter protein is the signal.

Assay [2] relates to G. lamblia strain CBG99. More on the design: method as in PMID 26324270. Conditions: cited from earlier work.
Setting [3] is: Giardia duodenalis, read-out: EC50 against G. lamblia trophozoite.
The mark [4] stands for this setting: Giardia duodenalis, read-out: EC50 ± SD (μM).
Setting [5] is: G. lamblia trophozoite growth in vitro, Table 2, read-out: EC50 ± SD.

The term EC50 denotes the concentration that produces a half-maximal response. For the compound `CC(C)C1NC(=O)C(CC2(O)c3ccccc3N3C(=O)C(C)(C)NC32)n2c1nc1ccccc1c2=O` (stereo not drawn) [J16E, epi-Fiscalin C], the EC50 in the assay on G. lamblia strain CBG99 [1] (Giardia duodenalis) is 0.555 µM.

By inhibition is commonly meant the share of the control response that was lost under treatment. `COC1C(OC(=O)C=CC=CC=CC=CC(=O)O)CCC(O)(CCl)C1C1(C)OC1CC=C(C)C` (centres unmarked) [NPDG 150137]: the inhibition at 10 µM with G. lamblia strain CBG99 [1] (Giardia duodenalis) is 90%. Moreover, the EC50 in the assay with G. lamblia strain CBG99 [1] (setting [3]) is below 0.2 µM; with G. lamblia strain CBG99 [1] (setting [4]) it was 0.006 µM. Moreover, the “times more potent than metronidazole” value in the assay with G. lamblia strain CBG99 [1] is above 25 times.

`CC1(C)C(=O)N2c3ccccc3C3(CC(n4cnc5ccccc5c4=O)C(=O)O3)C2N1O` (centres unmarked) [J16L, Tryptoquivaline L]: the 50% effective concentration (EC50) in the assay on G. lamblia strain CBG99 [1] (Giardia duodenalis) was 7.15 µM.

With `CO[C@@H]1[C@H](OC(=O)\C=C/C=C/C=C/C=C/C(=O)O)CC[C@]2(CO2)[C@H]1[C@@]1(C)O[C@@H]1CC=C(C)C` [NPDG 150049, cis-Fumagillin], the inhibition at 10 µM with G. lamblia strain CBG99 [1] (Giardia duodenalis) came to 85%. The EC50 in the assay with G. lamblia strain CBG99 [1] (setting [3]) is below 0.2 µM; in the assay with G. lamblia strain CBG99 [1] (setting [4]), 0.03 ± 0.02 µM. In addition, in the assay with G. lamblia strain CBG99 [1], the “times more potent than metronidazole” value is on record as above 25 times.

With `COC1=CC(=O)C[C@@H](C)[C@]12Oc1c(Cl)c(OC)cc(OC)c1C2=O` [J16K, Griseofulvin], the EC50 in the assay on G. lamblia strain CBG99 [1] (Giardia duodenalis) came to 7.88 µM.

Consider `CC(=O)ON1C2N(C(=O)C1(C)C)c1ccccc1C21CC(n2c(C(O)C(C)C)nc3ccccc3c2=O)C(=O)O1` (centres unmarked) [J36C, isotryptoquivaline], for which, in the assay on G. lamblia strain CBG99 [1] (Giardia duodenalis), the concentration for a half-maximal effect (EC50) is 0.84 µM.

With `COC1=CC(=O)c2c(O)c(C)c(CC(C)=O)c(O)c2C1=O` [NPDG 160012, Javanicin], in the assay on G. lamblia strain CBG99 [1] (Giardia duodenalis), the inhibition at 10 µM amounted to 89%. In addition, the EC50 in the assay on G. lamblia strain CBG99 [1] (setting [4]) was determined as 1.26 ± 1.01 µM.

`COC12OC1(C13OC1(OC)C(=O)c1cc4cc(C)oc(=O)c4c(O)c1C3O)C(O)c1c(cc3cc(C)oc(=O)c3c1O)C2=O` (centres unmarked) [J16R, Xanthoepocin]: the EC50 with G. lamblia strain CBG99 [1] (Giardia duodenalis) stood at 0.146 µM.

For the compound `N[C@H](C(=O)O)[C@@H]1CC(Cl)=NO1` [NPDG 120071, Acivicin], in the assay with G. lamblia strain CBG99 [1] (Giardia duodenalis), the inhibition at 10 µM is 85%. In addition, the 50% effective concentration (EC50) in the assay on G. lamblia strain CBG99 [1] (setting [4]) was above 10 µM.

On to `CC(=O)O[C@H]1C[C@@]2(C)[C@@H](CC[C@H]3[C@@]4(C)C=CC(=O)[C@@H](C)[C@@H]4[C@H](OC(C)=O)C(=O)[C@@]32C)/C1=C(\CCC=C(C)C)C(=O)O` [NPDG 170028, Helvolic acid], for which the inhibition at 10 µM with G. lamblia strain CBG99 [1] (Giardia duodenalis) amounted to 83%. Moreover, the EC50 in the assay on G. lamblia strain CBG99 [1] (setting [4]) worked out at 3.36 ± 0.14 µM.

Regarding `C/C=C/C=C/C=C/C(=O)O[C@@H]1C=C2COC(=O)[C@]2(O)[C@@]2(C)CCCC(C)(C)[C@H]12` [NPDG 150125, RES-1149-2], the inhibition at 10 µM in the assay with G. lamblia strain CBG99 [1] (Giardia duodenalis) was 88%. Moreover, the EC50 is below 0.2 µM with G. lamblia strain CBG99 [1] (setting [3]) and 0.18 ± 0.11 µM in the assay on G. lamblia strain CBG99 [1] (setting [4]). In the assay with G. lamblia strain CBG99 [1], the “times more potent than metronidazole” value is on record as above 25 times.

As usually defined, the % inhibition is the percentage by which the read-out fell short of the control. Take `CC(=O)OC(C)(C)[C@H]1O[C@H]2CC[C@@]3(C)[C@@](O)(CC[C@H]4Cc5c([nH]c6ccccc56)[C@@]43C)C2=CC1=O` [NPDG 150113, 1′-O-acetylpaxilline]: the concentration for a half-maximal effect (EC50) on G. lamblia strain CBG99 [1] (setting [5]) turned out to be 3.4 µM. Further, the “% inhibition at 10 μM” value with G. lamblia strain CBG99 [1] is listed as 82%.

On to `CC(C)C(=O)c1nc2ccccc2c(=O)n1C1CC2(OC1=O)c1ccccc1N1C(=O)C(C)(C)NC12` (centres unmarked) [J36B], for which, in the assay with G. lamblia strain CBG99 [1] (Giardia duodenalis), the 50% effective concentration (EC50) was determined as 0.044 µM.

For the compound `C/C=C(\C)c1cc(OC)c(C)c2c1Oc1c(CO)c(O)cc(/C(C)=C/C(=O)O)c1C(=O)O2` [NPDG 150134, Auranticin A], the inhibition at 10 µM in the assay with G. lamblia strain CBG99 [1] (Giardia duodenalis) is 89%. The concentration giving a half-maximal response (EC50) with G. lamblia strain CBG99 [1] (setting [4]) stood at 4.44 ± 3.02 µM.

Turning to `COC(=O)C1=C[C@@H](O)[C@@H](O)[C@@H](O)[C@H]1N1C[C@H](O)[C@@H](OC(C)=O)[C@H]1Cc1ccc(OC)cc1` [NPDG 150029, Anisomycin 1-N-pericosine], the inhibition at 10 µM in the assay with G. lamblia strain CBG99 [1] (Giardia duodenalis) stood at 86%. Moreover, in the assay on G. lamblia strain CBG99 [1] (setting [4]), the EC50 came out at 3.32 ± 0.01 µM.

With `CC(=O)C1=C(O)[C@@H]2[C@H]3c4c[nH]c5cccc(c45)C[C@H]3C(C)(C)N2C1=O` [NPDG 170027, Cyclopiazonic acid], in the assay on G. lamblia strain CBG99 [1] (Giardia duodenalis), the inhibition at 10 µM was 81%. Besides, the EC50 in the assay with G. lamblia strain CBG99 [1] (setting [4]) was determined as 1.3 ± 0.71 µM.

Consider `COC1=CC(=O)CC(C)C12Oc1cc(OC)cc(OC)c1C2=O` (centres unmarked) [J16A, Dechlorogriseofulvin], for which the EC50 in the assay with G. lamblia strain CBG99 [1] (Giardia duodenalis, read-out: Giardia EC50 (μM)) was above 15 µM.

For `COC(=O)c1c(Sc2c(O)cc3oc4cc(C)cc(O)c4c(=O)c3c2C(=O)OC)c(O)cc(OC)c1C(=O)c1c(O)cc(C)cc1O` [NPDG 150051, Dioschrin], the 50% effective concentration (EC50) at G. lamblia strain CBG99 [1] (setting [5]) amounted to 3.21 ± 0.61 µM. For the same compound, the “% inhibition at 10 μM” value in the assay on G. lamblia strain CBG99 [1] is reported as 82%.

Perfraglin A [NPDG 120038]: the EC50 at G. lamblia strain CBG99 [1] (setting [5]) is above 10 µM. The “% inhibition at 10 μM” value in the assay on G. lamblia strain CBG99 [1] is 75%.

For `Cc1ncc([N+](=O)[O-])n1CCO` [metronidazole], the EC50 in the assay on G. lamblia strain CBG99 [2] is 5 µM.

As to `CC(C)=C1NC(=O)C(CC2(O)c3ccccc3N3C(=O)C(C)(C)NC32)n2c1nc1ccccc1c2=O` (centres unmarked) [J16M, Quinadoline A], the EC50 in the assay with G. lamblia strain CBG99 [1] (Giardia duodenalis) is 3.29 µM.

For `C=C1CC[C@@H](OC(=O)/C=C/C=C/C=C/C=C/C(=O)O)[C@@H](OC)[C@H]1[C@@]1(C)O[C@@H]1CC=C(C)C` [NPDG 150138, Sch 528647], the EC50 at G. lamblia strain CBG99 [1] (setting [5]) is 3.09 ± 0.16 µM. Further, the “% inhibition at 10 μM” value in the assay on G. lamblia strain CBG99 [1] was 88%.

In the case of `C[C@@H]1N[C@H]2N(C1=O)c1ccccc1[C@@]21C[C@@H]2C(=O)N[C@@](C)(O1)c1nc3ccccc3c(=O)n12` [NPDG 170098, Fumiquinazoline C], the EC50 at G. lamblia strain CBG99 [1] (setting [5]) was 6.92 ± 8.5 µM. Moreover, the “% inhibition at 10 μM” value with G. lamblia strain CBG99 [1] is reported as 82%.

As to `CO[C@@H]1[C@H](OC(=O)/C=C/C=C/C=C/C=C/C(=O)O)CC[C@]2(CO2)[C@H]1[C@@]1(C)O[C@@H]1CC=C(C)C` [NPDG 170035, Fumagillin], in the assay with G. lamblia strain CBG99 [1] (Giardia duodenalis), the inhibition at 10 µM was determined as 88%. The concentration giving a half-maximal response (EC50) in the assay with G. lamblia strain CBG99 [1] (setting [3]) is below 0.2 µM; with G. lamblia strain CBG99 [1] (setting [4]), 0.004 µM. Moreover, the “times more potent than metronidazole” value in the assay on G. lamblia strain CBG99 [1] is on record as above 25 times.
